Laboratory results published in paper PMC10838953.
pIC50: −log10 of the molar value.

How the values were obtained:
CIT = CIT (Homo sapiens, UniProt O14578); experiment: biochemical; details: read-out: %Ctrl @ 2000nM
MYO3A = MYO3A (Homo sapiens, UniProt Q8NEV4); experiment: biochemical; details: read-out: %Ctrl @ 2000nM
LZK = LZK (Homo sapiens, UniProt O43283); experiment: biochemical; details: read-out: %Ctrl @ 2000nM
PLK4 = PLK4 (Homo sapiens, UniProt O00444); experiment: biochemical; details: read-out: %Ctrl @ 2000nM
[1] = molecular target: RSK4(Kin.Dom.2-C-terminal) (Homo sapiens, UniProt Q9UK32); experiment: biochemical; details: read-out: %Ctrl @ 2000nM
JNK1 = JNK1 (Homo sapiens, UniProt P45983); experiment: biochemical; details: read-out: %Ctrl @ 2000nM
Sequence of JNK1 (P45983 whole entry): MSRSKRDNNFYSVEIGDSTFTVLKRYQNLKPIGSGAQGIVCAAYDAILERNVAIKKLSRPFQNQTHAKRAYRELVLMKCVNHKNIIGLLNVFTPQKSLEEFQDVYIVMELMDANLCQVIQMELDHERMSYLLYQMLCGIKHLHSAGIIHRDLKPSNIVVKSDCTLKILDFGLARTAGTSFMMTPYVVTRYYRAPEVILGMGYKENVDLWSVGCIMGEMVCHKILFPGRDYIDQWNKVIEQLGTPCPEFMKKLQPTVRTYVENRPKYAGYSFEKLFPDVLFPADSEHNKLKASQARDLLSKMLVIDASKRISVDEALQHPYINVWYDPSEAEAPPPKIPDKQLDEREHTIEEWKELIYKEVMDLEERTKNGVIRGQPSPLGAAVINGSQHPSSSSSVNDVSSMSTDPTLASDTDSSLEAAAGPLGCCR

AKT (S129) = details: 786-O cells; 48 h
CSK = CSK (Homo sapiens, UniProt P41240); experiment: biochemical; details: read-out: %Ctrl @ 2000nM
CLK1 = CLK1 (Homo sapiens, UniProt P49759); experiment: biochemical; details: read-out: %Ctrl @ 2000nM
MTOR = MTOR (Homo sapiens, UniProt P42345); experiment: biochemical; details: read-out: %Ctrl @ 2000nM
GCN2(Kin.Dom.2,S808G) = GCN2(Kin.Dom.2,S808G) (Homo sapiens, UniProt Q9P2K8, S808G); experiment: biochemical; details: read-out: %Ctrl @ 2000nM
CSF1R-autoinhibited = CSF1R-autoinhibited (Homo sapiens, UniProt P07333); experiment: biochemical; details: read-out: %Ctrl @ 2000nM
PFTAIRE2 = PFTAIRE2 (Homo sapiens, UniProt Q96Q40); experiment: biochemical; details: read-out: %Ctrl @ 2000nM
Sequence of PFTAIRE2 (Q96Q40 whole entry): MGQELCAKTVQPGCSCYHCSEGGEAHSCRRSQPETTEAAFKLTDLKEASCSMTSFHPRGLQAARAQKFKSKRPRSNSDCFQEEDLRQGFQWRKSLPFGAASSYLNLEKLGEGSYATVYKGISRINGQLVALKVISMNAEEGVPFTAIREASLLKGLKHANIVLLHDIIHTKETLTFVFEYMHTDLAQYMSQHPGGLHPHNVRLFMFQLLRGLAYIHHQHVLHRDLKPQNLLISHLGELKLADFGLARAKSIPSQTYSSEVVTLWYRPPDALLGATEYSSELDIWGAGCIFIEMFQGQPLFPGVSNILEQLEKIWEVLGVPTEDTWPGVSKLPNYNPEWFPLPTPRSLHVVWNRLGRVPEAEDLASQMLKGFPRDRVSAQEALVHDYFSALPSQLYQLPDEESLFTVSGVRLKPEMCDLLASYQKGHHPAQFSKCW

ACVR2B = ACVR2B (Homo sapiens, UniProt Q13705); experiment: biochemical; details: read-out: %Ctrl @ 2000nM
STAT3 (S727) = details: 786-O cells; 48 h
RAF1 = RAF1 (Homo sapiens, UniProt P04049); experiment: biochemical; details: read-out: %Ctrl @ 2000nM
[2] = molecular target: JAK1(JH1domain-catalytic) (Homo sapiens, UniProt P23458); experiment: biochemical; details: read-out: %Ctrl @ 2000nM
CAMK2G = CAMK2G (Homo sapiens, UniProt Q13555); experiment: biochemical; details: read-out: %Ctrl @ 2000nM
Sequence of CAMK2G (Q13555 whole entry): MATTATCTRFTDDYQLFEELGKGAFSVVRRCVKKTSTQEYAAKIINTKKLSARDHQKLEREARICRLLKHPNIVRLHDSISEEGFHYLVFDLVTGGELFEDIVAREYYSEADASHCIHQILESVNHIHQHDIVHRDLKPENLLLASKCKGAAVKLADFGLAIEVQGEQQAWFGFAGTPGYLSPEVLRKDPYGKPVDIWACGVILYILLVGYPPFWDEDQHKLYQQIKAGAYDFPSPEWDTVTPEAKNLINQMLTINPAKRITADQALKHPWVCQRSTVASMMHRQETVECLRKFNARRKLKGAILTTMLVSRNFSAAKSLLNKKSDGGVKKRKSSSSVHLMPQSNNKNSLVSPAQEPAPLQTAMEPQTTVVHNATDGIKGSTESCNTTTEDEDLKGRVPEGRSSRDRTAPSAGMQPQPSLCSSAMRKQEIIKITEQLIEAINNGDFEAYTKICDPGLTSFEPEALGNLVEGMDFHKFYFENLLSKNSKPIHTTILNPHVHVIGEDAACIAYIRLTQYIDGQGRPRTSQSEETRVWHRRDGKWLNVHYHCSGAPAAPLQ

PAK7 = PAK7 (Homo sapiens, UniProt Q9P286); experiment: biochemical; details: read-out: %Ctrl @ 2000nM
VRK2 = VRK2 (Homo sapiens, UniProt Q86Y07); experiment: biochemical; details: read-out: %Ctrl @ 2000nM
PIK3CA(E545K) = PIK3CA(E545K) (Homo sapiens, UniProt P42336, E545K); experiment: biochemical; details: read-out: %Ctrl @ 2000nM
NEK7 = NEK7 (Homo sapiens, UniProt Q8TDX7); experiment: biochemical; details: read-out: %Ctrl @ 2000nM
FLT4 = FLT4 (Homo sapiens, UniProt P35916); experiment: biochemical; details: read-out: %Ctrl @ 2000nM
primary hepatocytes = experiment: cells; details: Hepatocyte, read-out: IC50 cell viability
KIT = KIT (Homo sapiens, UniProt P10721); experiment: biochemical; details: read-out: %Ctrl @ 2000nM
MYLK4 = MYLK4 (Homo sapiens, UniProt Q86YV6); experiment: biochemical; details: read-out: %Ctrl @ 2000nM
S6K1 = S6K1 (Homo sapiens, UniProt P23443); experiment: biochemical; details: read-out: %Ctrl @ 2000nM
TXK = TXK (Homo sapiens, UniProt P42681); experiment: biochemical; details: read-out: %Ctrl @ 2000nM
AURKA = AURKA (Homo sapiens, UniProt O14965); experiment: biochemical; details: read-out: %Ctrl @ 2000nM
ROS1 = ROS1 (Homo sapiens, UniProt P08922); experiment: biochemical; details: read-out: %Ctrl @ 2000nM
FLT3 = FLT3 (Homo sapiens, UniProt P36888); experiment: biochemical; details: read-out: %Ctrl @ 2000nM
CSNK1D = CSNK1D (Homo sapiens, UniProt P48730); experiment: biochemical; details: read-out: %Ctrl @ 2000nM
Sequence of CSNK1D (P48730 whole entry): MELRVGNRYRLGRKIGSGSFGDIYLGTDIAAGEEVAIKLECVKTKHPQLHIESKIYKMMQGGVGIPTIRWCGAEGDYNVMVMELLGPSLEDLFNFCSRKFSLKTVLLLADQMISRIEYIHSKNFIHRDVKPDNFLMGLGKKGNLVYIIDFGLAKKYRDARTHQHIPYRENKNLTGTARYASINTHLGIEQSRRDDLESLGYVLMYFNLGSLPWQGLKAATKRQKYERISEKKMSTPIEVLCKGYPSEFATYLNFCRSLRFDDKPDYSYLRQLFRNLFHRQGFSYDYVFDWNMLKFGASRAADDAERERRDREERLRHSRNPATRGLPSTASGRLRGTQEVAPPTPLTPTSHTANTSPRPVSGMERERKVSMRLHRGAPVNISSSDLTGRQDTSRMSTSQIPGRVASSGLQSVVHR

CHEK1 = CHEK1 (Homo sapiens, UniProt O14757); experiment: biochemical; details: read-out: %Ctrl @ 2000nM
MLK1 = MLK1 (Homo sapiens, UniProt P80192); experiment: biochemical; details: read-out: %Ctrl @ 2000nM
ACVRL1 = ACVRL1 (Homo sapiens, UniProt P37023); experiment: biochemical; details: read-out: %Ctrl @ 2000nM
TNIK = TNIK (Homo sapiens, UniProt Q9UKE5); experiment: biochemical; details: read-out: %Ctrl @ 2000nM
LYN = LYN (Homo sapiens, UniProt P07948); experiment: biochemical; details: read-out: %Ctrl @ 2000nM
[3] = molecular target: EGFR(L747-E749del, A750P) (Homo sapiens, UniProt P00533, A750P/DEL747-749); experiment: biochemical; details: read-out: %Ctrl @ 2000nM
CTK = CTK (Homo sapiens, UniProt P42679); experiment: biochemical; details: read-out: %Ctrl @ 2000nM
VEGFR2 = VEGFR2 (Homo sapiens, UniProt P35968); experiment: biochemical; details: read-out: %Ctrl @ 2000nM
Sequence of VEGFR2 (P35968 20-1356): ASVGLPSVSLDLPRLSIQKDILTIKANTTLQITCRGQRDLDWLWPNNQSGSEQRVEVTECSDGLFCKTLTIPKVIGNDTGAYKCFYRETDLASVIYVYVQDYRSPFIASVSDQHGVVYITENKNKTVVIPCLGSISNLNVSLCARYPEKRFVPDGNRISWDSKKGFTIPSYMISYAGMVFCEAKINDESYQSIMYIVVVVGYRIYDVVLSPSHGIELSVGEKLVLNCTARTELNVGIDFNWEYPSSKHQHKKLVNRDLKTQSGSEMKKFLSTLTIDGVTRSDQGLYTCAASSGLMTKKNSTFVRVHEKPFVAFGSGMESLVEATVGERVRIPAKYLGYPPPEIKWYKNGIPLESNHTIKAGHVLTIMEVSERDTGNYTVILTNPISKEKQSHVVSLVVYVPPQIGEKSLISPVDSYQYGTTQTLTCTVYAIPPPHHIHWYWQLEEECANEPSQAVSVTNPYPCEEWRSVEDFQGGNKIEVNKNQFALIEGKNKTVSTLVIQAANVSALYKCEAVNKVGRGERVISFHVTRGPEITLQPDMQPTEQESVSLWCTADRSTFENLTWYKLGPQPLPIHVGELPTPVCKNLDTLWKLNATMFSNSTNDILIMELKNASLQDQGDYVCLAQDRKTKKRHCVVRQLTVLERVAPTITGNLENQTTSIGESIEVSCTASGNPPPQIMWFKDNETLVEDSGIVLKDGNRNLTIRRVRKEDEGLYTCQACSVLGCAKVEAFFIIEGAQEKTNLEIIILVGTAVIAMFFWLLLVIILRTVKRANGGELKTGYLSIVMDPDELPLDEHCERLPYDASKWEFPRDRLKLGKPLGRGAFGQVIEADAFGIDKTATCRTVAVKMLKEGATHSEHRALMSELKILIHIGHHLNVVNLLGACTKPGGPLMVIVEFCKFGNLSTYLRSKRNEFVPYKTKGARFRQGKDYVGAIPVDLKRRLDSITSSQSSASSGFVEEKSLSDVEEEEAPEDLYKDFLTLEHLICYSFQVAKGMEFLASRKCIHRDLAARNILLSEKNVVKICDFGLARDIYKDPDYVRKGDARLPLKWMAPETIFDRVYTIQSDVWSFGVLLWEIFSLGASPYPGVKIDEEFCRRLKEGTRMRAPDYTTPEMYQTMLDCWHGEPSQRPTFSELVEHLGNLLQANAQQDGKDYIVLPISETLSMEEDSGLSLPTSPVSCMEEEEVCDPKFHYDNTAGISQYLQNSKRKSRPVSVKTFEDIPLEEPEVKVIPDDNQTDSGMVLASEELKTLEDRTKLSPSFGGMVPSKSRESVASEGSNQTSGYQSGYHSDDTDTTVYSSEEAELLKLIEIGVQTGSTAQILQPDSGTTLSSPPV

[4] = test system: 786-O, A549, MDA-MB-231, OVCAR-3, U373 MG
HPK1 = HPK1 (Homo sapiens, UniProt Q92918); experiment: biochemical; details: read-out: %Ctrl @ 2000nM
Sequence of HPK1 (Q92918 whole entry): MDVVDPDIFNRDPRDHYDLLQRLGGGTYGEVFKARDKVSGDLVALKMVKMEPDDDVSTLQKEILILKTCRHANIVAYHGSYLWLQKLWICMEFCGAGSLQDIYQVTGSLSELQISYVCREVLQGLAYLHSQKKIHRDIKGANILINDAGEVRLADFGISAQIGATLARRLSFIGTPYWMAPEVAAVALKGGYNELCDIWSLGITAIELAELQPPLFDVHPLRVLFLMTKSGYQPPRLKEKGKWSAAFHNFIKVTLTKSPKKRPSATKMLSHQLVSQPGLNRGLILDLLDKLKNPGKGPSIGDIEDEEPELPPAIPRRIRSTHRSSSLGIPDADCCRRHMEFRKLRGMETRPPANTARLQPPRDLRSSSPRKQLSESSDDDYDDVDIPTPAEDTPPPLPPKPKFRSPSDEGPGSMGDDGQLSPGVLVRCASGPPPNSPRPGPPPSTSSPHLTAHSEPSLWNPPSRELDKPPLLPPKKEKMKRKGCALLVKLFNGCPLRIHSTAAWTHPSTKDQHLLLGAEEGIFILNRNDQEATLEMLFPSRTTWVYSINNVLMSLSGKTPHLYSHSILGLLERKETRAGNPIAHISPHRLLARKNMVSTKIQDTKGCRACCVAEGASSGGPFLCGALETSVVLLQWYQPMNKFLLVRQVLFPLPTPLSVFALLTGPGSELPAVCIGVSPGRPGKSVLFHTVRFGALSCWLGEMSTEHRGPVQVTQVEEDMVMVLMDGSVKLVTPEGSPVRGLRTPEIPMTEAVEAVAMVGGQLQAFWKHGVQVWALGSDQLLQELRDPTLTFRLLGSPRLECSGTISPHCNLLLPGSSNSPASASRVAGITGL

STK35 = STK35 (Homo sapiens, UniProt Q8TDR2); experiment: biochemical; details: read-out: %Ctrl @ 2000nM

Sequence of LZK (O43283 whole entry): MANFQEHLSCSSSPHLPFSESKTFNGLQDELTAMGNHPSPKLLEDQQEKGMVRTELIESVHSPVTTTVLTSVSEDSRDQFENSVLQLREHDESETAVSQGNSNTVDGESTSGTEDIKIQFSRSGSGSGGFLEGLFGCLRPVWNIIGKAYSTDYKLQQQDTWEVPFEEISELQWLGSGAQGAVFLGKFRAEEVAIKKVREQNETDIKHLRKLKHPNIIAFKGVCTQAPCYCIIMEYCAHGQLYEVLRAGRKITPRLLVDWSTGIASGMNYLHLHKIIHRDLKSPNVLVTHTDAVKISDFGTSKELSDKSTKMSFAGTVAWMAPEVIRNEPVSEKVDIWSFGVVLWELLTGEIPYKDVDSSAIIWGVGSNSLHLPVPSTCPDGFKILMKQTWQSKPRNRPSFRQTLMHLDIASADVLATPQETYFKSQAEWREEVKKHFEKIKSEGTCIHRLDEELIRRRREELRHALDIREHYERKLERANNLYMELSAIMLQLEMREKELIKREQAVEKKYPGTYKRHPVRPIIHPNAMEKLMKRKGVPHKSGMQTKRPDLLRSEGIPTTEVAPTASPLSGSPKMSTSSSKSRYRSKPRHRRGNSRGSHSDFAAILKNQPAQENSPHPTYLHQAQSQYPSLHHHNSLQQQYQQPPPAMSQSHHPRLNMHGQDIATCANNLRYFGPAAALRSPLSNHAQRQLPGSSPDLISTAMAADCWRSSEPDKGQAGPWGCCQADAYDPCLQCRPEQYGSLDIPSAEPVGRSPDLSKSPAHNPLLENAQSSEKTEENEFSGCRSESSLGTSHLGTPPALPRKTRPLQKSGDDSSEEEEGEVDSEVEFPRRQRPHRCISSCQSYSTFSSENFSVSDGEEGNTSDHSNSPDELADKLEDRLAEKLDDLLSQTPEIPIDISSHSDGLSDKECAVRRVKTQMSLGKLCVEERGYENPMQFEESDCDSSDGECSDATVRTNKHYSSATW

CC(C)COC(=O)c1[nH]c2ccc(F)cc2c1-c1cn(CC2CCN(CCNS(=O)(=O)c3ccc(CC(C)C)cc3)CC2)nn1 [AB668, isobutyl 5-fluoro-3-(1-((1-(2-((4-isobutylphenyl)sulfonamido)ethyl)piperidin-4-yl)methyl)-1H-1,2,3-triazol-4-yl)-1H-indole-2-carboxylate]
remaining activity at 2 µM (CIT): 88%
remaining activity at 2 µM (MYO3A): 96%
remaining activity at 2 µM (LZK): 100%
remaining activity at 2 µM (PLK4): 94%
remaining activity at 2 µM [1]: 94%
remaining activity at 2 µM (JNK1): 77%
phosphorylation of S129AKT (AKT (S129)): decreased, in a dose-dependent manner
remaining activity at 2 µM (CSK): 95%
remaining activity at 2 µM (CLK1): 67%
remaining activity at 2 µM (MTOR): 92%
remaining activity at 2 µM (GCN2(Kin.Dom.2,S808G)): 80%
remaining activity at 2 µM (CSF1R-autoinhibited): 85%
remaining activity at 2 µM (PFTAIRE2): 88%
remaining activity at 2 µM (ACVR2B): 92%
activated forms of STAT3 (STAT3 (S727)): dose-dependent inhibition
remaining activity at 2 µM (RAF1): 100%
remaining activity at 2 µM [2]: 75%
remaining activity at 2 µM (CAMK2G): 78%
remaining activity at 2 µM (PAK7): 85%
remaining activity at 2 µM (VRK2): 78%
remaining activity at 2 µM (PIK3CA(E545K)): 88%
remaining activity at 2 µM (NEK7): 93%
remaining activity at 2 µM (FLT4): 98%
pIC50 (primary hepatocytes): < 4.00
remaining activity at 2 µM (KIT): 95%
remaining activity at 2 µM (MYLK4): 100%
remaining activity at 2 µM (S6K1): 89%
remaining activity at 2 µM (TXK): 92%
remaining activity at 2 µM (AURKA): 100%
remaining activity at 2 µM (ROS1): 89%
remaining activity at 2 µM (FLT3): 87%
remaining activity at 2 µM (CSNK1D): 89%
remaining activity at 2 µM (CHEK1): 95%
remaining activity at 2 µM (MLK1): 96%
remaining activity at 2 µM (ACVRL1): 90%
remaining activity at 2 µM (TNIK): 88%
remaining activity at 2 µM (LYN): 88%
remaining activity at 2 µM [3]: 90%
remaining activity at 2 µM (CTK): 82%
remaining activity at 2 µM (VEGFR2): 98%
cell death in various cancer cells [4]: broad effect on cell death
remaining activity at 2 µM (HPK1): 92%
remaining activity at 2 µM (STK35): 89%
